{"source": "patent US8257478B2", "about": "“Use of marine fungus originated compounds as antifouling agents” (The Hong Kong University of Science and Technology, priority 2004, dated 2012)", "key": {"[1]": {"tested_on": "Pseudoalteromonas piscida", "assay": "agar disc diffusion assay, inhibition zone", "assay_type": "cell-based", "details": "50 μg/disc, 30° C., 24 h, read-out: Inhibition Zone Width", "method": "(§1) Antibacterial activity was tested against bacteria using an agar disc diffusion assay method. Sterile paper discs (6 mm i.d.) impregnated with the substance under test at a concentration of 50 μg disc^−1 were applied onto the surface of an agar plate (plastic Petri dish) inoculated with one strain with sterile forceps and gently pressed down to ensure good contact with the surface. Blank discs treated with the same volume of DMSO were added. A control disc, containing streptomycin was used. After the application of discs, the plates were incubated at 30° C. for 24 h, and then the size of the inhibition zone was measured.\nas §1, with “using” for “using an”, “assay.” for “assay method.”, “disc” for “disc,”, “h. The” for “h, and then the”, “measured. The results are presented in Table 8 and Table 9 for Cyclo (D)-Pro-(D)-Phe and b3-methyl-N-(2-phenylethyl)butanamide, respectively.” for “measured.”"}, "Vibrio fluvialis": {"tested_on": "Vibrio fluvialis", "assay": "agar disc diffusion assay, inhibition zone", "assay_type": "cell-based", "details": "50 μg/disc, 30° C., 24 h, read-out: Inhibition Zone Width", "method": "as §1\nas §1, with “using” for “using an”, “assay.” for “assay method.”, “disc” for “disc,”, “h. The” for “h, and then the”, “measured. The results are presented in Table 8 and Table 9 for Cyclo (D)-Pro-(D)-Phe and b3-methyl-N-(2-phenylethyl)butanamide, respectively.” for “measured.”"}, "Micrococcus luteus": {"tested_on": "Micrococcus luteus", "assay": "agar disc diffusion assay, inhibition zone", "assay_type": "cell-based", "details": "50 μg/disc, 30° C., 24 h, read-out: Inhibition Zone Width", "method": "as §1\nas §1, with “using” for “using an”, “assay.” for “assay method.”, “disc” for “disc,”, “h. The” for “h, and then the”, “measured. The results are presented in Table 8 and Table 9 for Cyclo (D)-Pro-(D)-Phe and b3-methyl-N-(2-phenylethyl)butanamide, respectively.” for “measured.”"}, "Moraxella phenylpyruvica": {"tested_on": "Moraxella phenylpyruvica", "assay": "agar disc diffusion assay, inhibition zone", "assay_type": "cell-based", "details": "Psychrobacter phenylpyruvicus; 50 μg/disc, 30° C., 24 h; read-out: Inhibition Zone Width", "method": "as §1\nas §1, with “using” for “using an”, “assay.” for “assay method.”, “disc” for “disc,”, “h. The” for “h, and then the”, “measured. The results are presented in Table 8 and Table 9 for Cyclo (D)-Pro-(D)-Phe and b3-methyl-N-(2-phenylethyl)butanamide, respectively.” for “measured.”"}, "Shewanella algae": {"tested_on": "Shewanella algae", "assay": "agar disc diffusion assay, inhibition zone", "assay_type": "cell-based", "details": "50 μg/disc, 30° C., 24 h, read-out: Inhibition Zone Width", "method": "as §1\nas §1, with “using” for “using an”, “assay.” for “assay method.”, “disc” for “disc,”, “h. The” for “h, and then the”, “measured. The results are presented in Table 8 and Table 9 for Cyclo (D)-Pro-(D)-Phe and b3-methyl-N-(2-phenylethyl)butanamide, respectively.” for “measured.”"}, "[2]": {"tested_on": "Staphylococcus haemolyticus", "assay": "agar disc diffusion assay, inhibition zone", "assay_type": "cell-based", "details": "50 μg/disc, 30° C., 24 h, read-out: Inhibition Zone Width", "method": "as §1\nas §1, with “using” for “using an”, “assay.” for “assay method.”, “disc” for “disc,”, “h. The” for “h, and then the”, “measured. The results are presented in Table 8 and Table 9 for Cyclo (D)-Pro-(D)-Phe and b3-methyl-N-(2-phenylethyl)butanamide, respectively.” for “measured.”"}, "Vibrio sp. (NAP-4)": {"tested_on": "Vibrio sp. (NAP-4)", "assay": "agar disc diffusion assay, inhibition zone", "assay_type": "cell-based", "details": "24 h, read-out: Inhibition Zone Width", "method": "as §1\nas §1, with “using” for “using an”, “assay.” for “assay method.”, “disc” for “disc,”, “h. The” for “h, and then the”, “measured. The results are presented in Table 8 and Table 9 for Cyclo (D)-Pro-(D)-Phe and b3-methyl-N-(2-phenylethyl)butanamide, respectively.” for “measured.”"}, "Vibrio harveyi": {"tested_on": "Vibrio harveyi", "assay": "agar disc diffusion assay, inhibition zone", "assay_type": "cell-based", "details": "50 μg/disc, 30° C., 24 h, read-out: Inhibition Zone Width", "method": "as §1\nas §1, with “using” for “using an”, “assay.” for “assay method.”, “disc” for “disc,”, “h. The” for “h, and then the”, “measured. The results are presented in Table 8 and Table 9 for Cyclo (D)-Pro-(D)-Phe and b3-methyl-N-(2-phenylethyl)butanamide, respectively.” for “measured.”"}, "Pseudoalteromonas sp.": {"tested_on": "Pseudoalteromonas sp.", "assay": "agar disc diffusion assay, inhibition zone", "assay_type": "cell-based", "details": "50 μg/disc, 30° C., 24 h, read-out: Inhibition Zone Width", "method": "as §1\nas §1, with “using” for “using an”, “assay.” for “assay method.”, “disc” for “disc,”, “h. The” for “h, and then the”, “measured. The results are presented in Table 8 and Table 9 for Cyclo (D)-Pro-(D)-Phe and b3-methyl-N-(2-phenylethyl)butanamide, respectively.” for “measured.”"}, "[3]": {"tested_on": "Balanus amphitrite larvae", "assay": "in vivo", "method": "(§2) The larval bioassay was conducted according to Rittschof et al. (1994), which is incorporated by reference herein in its entirety.\n(§3) Toxicity of cyclo (D)-Pro-(D)-Phe was determined using 24-well polystyrene plates. Pure compound was dissolved in DMSO and added to autoclaved FSW to form different concentrations. Competent Balanus amphitrites larvae (10±2 individuals) were added to each well with 1 ml testing solution in 5 replicates. The wells containing FSW served as the control. The 24-well plates were incubated at 30° C. for 24 h. The percent mortality was determined by counting the number of dead larvae under a dissecting microscope.\n(§4) The assay was conducted according to Rittschof et al. (1994). Data plotted are means+SD of five replicates."}, "in vivo": {"assay": "in vivo", "details": "Balanus amphitrite (barnacle) larvae, in vivo", "method": "as §2, §3, §4"}, "Vibrio halioticoli": {"tested_on": "Vibrio halioticoli", "assay": "agar disc diffusion assay, inhibition zone", "assay_type": "cell-based", "details": "24 h, read-out: Inhibition Zone Width", "method": "as §1, with “using” for “using an”, “assay.” for “assay method.”, “disc” for “disc,”, “h. The” for “h, and then the”, “measured. The results are presented in Table 8 and Table 9 for Cyclo (D)-Pro-(D)-Phe and b3-methyl-N-(2-phenylethyl)butanamide, respectively.” for “measured.”"}, "Vibrio vulnificus": {"tested_on": "Vibrio vulnificus", "assay": "agar disc diffusion assay, inhibition zone", "assay_type": "cell-based", "details": "24 h, read-out: Inhibition Zone Width", "method": "as §1, with “using” for “using an”, “assay.” for “assay method.”, “disc” for “disc,”, “h. The” for “h, and then the”, “measured. The results are presented in Table 8 and Table 9 for Cyclo (D)-Pro-(D)-Phe and b3-methyl-N-(2-phenylethyl)butanamide, respectively.” for “measured.”"}, "Vibrio furnissii": {"tested_on": "Vibrio furnissii", "assay": "agar disc diffusion assay, inhibition zone", "assay_type": "cell-based", "details": "24 h, read-out: Inhibition Zone Width", "method": "as §1, with “using” for “using an”, “assay.” for “assay method.”, “disc” for “disc,”, “h. The” for “h, and then the”, “measured. The results are presented in Table 8 and Table 9 for Cyclo (D)-Pro-(D)-Phe and b3-methyl-N-(2-phenylethyl)butanamide, respectively.” for “measured.”"}, "Loktanella hongkongensis": {"tested_on": "Loktanella hongkongensis", "assay": "agar disc diffusion assay, inhibition zone", "assay_type": "cell-based", "details": "Limimaricola hongkongensis, 24 h, read-out: Inhibition Zone Width", "method": "as §1, with “using” for “using an”, “assay.” for “assay method.”, “disc” for “disc,”, “h. The” for “h, and then the”, “measured. The results are presented in Table 8 and Table 9 for Cyclo (D)-Pro-(D)-Phe and b3-methyl-N-(2-phenylethyl)butanamide, respectively.” for “measured.”"}, "Vibrio alginolyticus": {"tested_on": "Vibrio alginolyticus", "assay": "agar disc diffusion assay, inhibition zone", "assay_type": "cell-based", "details": "24 h, read-out: Inhibition Zone Width", "method": "as §1, with “using” for “using an”, “assay.” for “assay method.”, “disc” for “disc,”, “h. The” for “h, and then the”, “measured. The results are presented in Table 8 and Table 9 for Cyclo (D)-Pro-(D)-Phe and b3-methyl-N-(2-phenylethyl)butanamide, respectively.” for “measured.”"}, "Rhodovulum sp.": {"tested_on": "Rhodovulum sp.", "assay": "agar disc diffusion assay, inhibition zone", "assay_type": "cell-based", "details": "24 h, read-out: Inhibition Zone Width", "method": "as §1, with “using” for “using an”, “assay.” for “assay method.”, “disc” for “disc,”, “h. The” for “h, and then the”, “measured. The results are presented in Table 8 and Table 9 for Cyclo (D)-Pro-(D)-Phe and b3-methyl-N-(2-phenylethyl)butanamide, respectively.” for “measured.”"}, "[4]": {"tested_on": "barnacle Balanus amphitrite larvae", "assay": "anti-larval settlement bioassay in 24-well plates", "assay_type": "in vivo", "details": "Amphibalanus amphitrite, read-out: EC50 (anti-larval settlement)", "method": "Anti-larval settlement activity of 3-chloro-2,5-dihydroxy benzyl alcohol (compound 1) was conducted using 24-well polystyrene plates. Pure compound was dissolved in DMSO and added to autoclaved FSW at different concentrations. Competent Balanus amphitrites larvae (10±2 individuals) were added to each well with 1 ml testing solution in 5 replicates, and wells containing FSW (filtered seawater) served as control. The 24-well plates were incubated at 30° C. for 24 h. The percent settlement was determined by counting the number of settled larvae under a dissecting microscope. In all bioassays, FSW served as the control. Statistical calculations were performed with the SPSS (Statistical Package for the Social Sciences) software package, Version 11.\nas §2, §4\nFor determining anti-larval settlement activity, adult Balanus amphitrile (Darwin) were collected from the intertidal zone in Hong Kong (22°19′N, 114°16′E). Nauplii obtained from several adults were mass-reared to cyprid stage at a density of 2 larvae ml^−1 in 0.22-μm-filtered seawater with 30 ppt salinity (FSW) using Chaetoceros gracilis Schutt as food and a rearing temperature of 28° C. Newly transformed cyprids were used for the experiment.\nAnti-larval settlement activity of succinic acid against B. amphitrite was determined using 24-well polystyrene plates. Pure compound was dissolved in autoclaved FSW ranged from 60-140 μg ml^−1 for B. amphitrite. Competent larvae (15±2 individuals) were added to each well with 1 ml testing solution in 5 replicates, and wells containing FSW served as the control. The 24-well plates were incubated at 30° C. for 24 h. The percent larval settlement was determined by counting the number of settled individuals under a dissecting microscope and expressed as a proportion of the total number of larvae in the well."}, "[5]": {"assay": "solubility in organic solvents", "assay_type": "physicochemical", "details": "at 25° C. in methanol, ethanol, propanol, butanol, ethyl acetate acetone, chloroform, dichloromethane and acetonitrile"}}}
{"smiles": "CC(C)CC(=O)NCCc1ccccc1", "note": "[Compound 3, 3-methyl-N-(2-phenylethyl) butanamide]", "values": [{"measurement": "zone of inhibition at 50 µg/disc", "setting": "[1]", "value": 1.5, "unit": "mm"}, {"measurement": "zone of inhibition at 50 µg/disc", "setting": "Vibrio fluvialis", "value": 0, "unit": "mm"}, {"measurement": "zone of inhibition at 50 µg/disc", "setting": "Micrococcus luteus", "value": "3.3 ± 0.6", "unit": "mm"}, {"measurement": "zone of inhibition at 50 µg/disc", "setting": "Moraxella phenylpyruvica", "value": 0, "unit": "mm"}, {"measurement": "zone of inhibition at 50 µg/disc", "setting": "Shewanella algae", "value": "1.3 ± 0.6", "unit": "mm"}, {"measurement": "zone of inhibition at 50 µg/disc", "setting": "[2]", "value": 0.5, "unit": "mm"}, {"measurement": "zone of inhibition at 50 µg/disc", "setting": "Vibrio sp. (NAP-4)", "value": 0, "unit": "mm"}, {"measurement": "zone of inhibition at 50 µg/disc", "setting": "Vibrio harveyi", "value": 0, "unit": "mm"}, {"measurement": "zone of inhibition at 50 µg/disc", "setting": "Pseudoalteromonas sp.", "value": 0, "unit": "mm"}, {"measurement": "therapeutic ratio LC50/EC50", "setting": "[3]; Balanus amphitrite larvae", "value": 2.23}, {"measurement": "toxic symptoms", "setting": "[3]; at the concentration of 50 μg ml^−1, 24 h", "value": "did not induce any toxic symptoms"}, {"measurement": "LC50 at 24 h", "setting": "in vivo", "value": 81.4, "unit": "µg/mL"}, {"measurement": "zone of inhibition at 50 µg/disc", "setting": "Vibrio halioticoli", "value": 0, "unit": "mm"}, {"measurement": "zone of inhibition at 50 µg/disc", "setting": "Vibrio vulnificus", "value": "1.2 ± 0.7", "unit": "mm"}, {"measurement": "zone of inhibition at 50 µg/disc", "setting": "Vibrio furnissii", "value": 0, "unit": "mm"}, {"measurement": "zone of inhibition at 50 µg/disc", "setting": "Loktanella hongkongensis", "value": 0.5, "unit": "mm"}, {"measurement": "zone of inhibition at 50 µg/disc", "setting": "Vibrio alginolyticus", "value": "1.7 ± 0.6", "unit": "mm"}, {"measurement": "zone of inhibition at 50 µg/disc", "setting": "Rhodovulum sp.", "value": "3 ± 0.5", "unit": "mm"}, {"measurement": "EC50", "setting": "[4]", "value": 36.5, "unit": "µg/mL"}, {"measurement": "solubility", "setting": "[5]", "value": "soluble"}]}
